Holding throughout (test): NCI tumour cell line growth inhibition, 48 h
Assay [1] relates to DU-145.
Assay [2] has as its system EKVX.
Assay [3] concerns HCC 2998.
Assay [4] concerns HCT-15.
Assay [5] concerns IGROV-1.
Assay [6] has as its system K562.
The subject of assay [7] is MOLT-4.
Assay [8] concerns NCI-H226.
In assay [9] the test system is NCI-H460.
The test system of assay [10] is NCI-H522.
The test system of assay [11] is NCI/ADR-RES.
The subject of assay [12] is OVCAR-4.
Assay [13] deals with OVCAR-5.
For assay [14], the system named is OVCAR-8.
Assay [15] concerns SF-268.
Assay [16] has as its system SF-295.
Assay [17] relates to TK-10.
In assay [18] the test system is HCT-116.
In assay [19] the test system is SF-539.
In assay [20] the test system is RPMI-8226.

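Grown in 96-well plates, cells were treated for 48 hours with each compound at five concentrations. Insufficient inhibition: endpoint recorded as highest concentration tested. Here, GI50 denotes the concentration required for 50% inhibition of growth.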 Calls of active or inactive are those of the source. No stated cut-off is given here; in the data, active = GI50 up to about 1.1 µM and inactive = higher. Where a SMILES comes first, the peptide text is derived from it. [ ]: non-standard residue; d: D form. The star is where a group is joined. ξ: configuration not given here. ξF = NC(Cc1ccccc1)C(=O)O; Cbz = O=C(OCc1ccccc1)*; Aib = CC(C)(N)C(=O)O

Turning to `O=[N+]([O-])c1ccc(Nc2nc3ccccc3s2)cc1`, the GI50 is 69.8 µM (inactive) in [1]; 18.7 µM (inactive) in assay [2]; 25.2 µM (inactive) in [3]; 28.8 µM in assay [4]; 3.94 µM (inactive) in assay [5]; 12.2 µM (inactive) in assay [6]. Also, the GI50 was 8.36 µM (inactive) in [7]; 63 µM (inactive) in assay [8]; 29.4 µM (inactive) in assay [9]; 14.4 µM (inactive) in assay [10]; 34.9 µM (inactive) in assay [11]; 43.2 µM (inactive) in [12]. For the same compound, the GI50 was 23 µM (inactive) in assay [13]; 40.7 µM (inactive) in assay [14]; 26.3 µM (inactive) in [15]; 37.6 µM (inactive) in assay [16]; 33.7 µM (inactive) in assay [17].

For the compound `CN(C)C(=S)SCc1ccccc1`, the GI50 in [1] was > 100 µM (inactive); in [2] it was > 100 µM (inactive); in assay [18] it was 83.9 µM (inactive); in assay [4] it was > 100 µM; in [5], > 100 µM (inactive); in assay [8], 54.2 µM (inactive). The GI50 in assay [9] was > 100 µM (inactive); in assay [10], 19.8 µM (inactive); in assay [11], > 100 µM (inactive); in assay [13], > 100 µM (inactive); in assay [14], > 100 µM (inactive); in assay [15], > 100 µM (inactive). The GI50 in [16], in assay [19] and in assay [17] was > 100 µM (inactive) in each case.

With `CCCOC(=O)CCC(NC(=O)c1ccc(Nc2nc3ccccc3nc2-c2cccs2)cc1)C(=O)OCCC` (centres undefined), the GI50 in [2] is > 100 µM (inactive); in [3], 95.5 µM (inactive); in assay [18] it was > 100 µM (inactive); in assay [4] it was > 100 µM; in [5] it was 55.1 µM (inactive); in assay [6], > 100 µM (inactive). Further, the GI50 in assay [7] was 2.31 µM (inactive); in [8], > 100 µM (inactive); in assay [10] it was > 100 µM (inactive); in [12], > 100 µM (inactive); in assay [13], 56 µM (inactive); in [14], > 100 µM (inactive). The GI50 in assay [20], in assay [15], in assay [16], in assay [19] and in assay [17] was > 100 µM (inactive) each time.

In the case of `Cc1cccc2c1Sc1ccccc1C2NC(=O)CN(C)C` (centres undefined), the GI50 in [2] was > 100 µM (inactive); in assay [3] it was 47.6 µM (inactive); in assay [18] it was > 100 µM (inactive); in assay [4], > 100 µM; in assay [5] it was > 100 µM (inactive); in [6], 81.1 µM (inactive). Further, the GI50 is 59.7 µM (inactive) in [7]; > 100 µM (inactive) in assay [8]; > 100 µM (inactive) in [9]; > 100 µM (inactive) in assay [12]; > 100 µM (inactive) in assay [13]; > 100 µM (inactive) in assay [14]. Besides, the GI50 in assay [20] is 77.8 µM (inactive); in assay [15], > 100 µM (inactive); in assay [19] it was > 100 µM (inactive); in assay [17], > 100 µM (inactive).

For the compound `Nc1nc(=S)[nH]c2nc3c(c(-c4ccccc4)c12)CCCC3`, the GI50 in [1] is > 100 µM (inactive); in assay [2], 50 µM (inactive); in assay [18], > 100 µM (inactive); in [4], > 100 µM; in assay [5] it was > 100 µM (inactive); in [6], > 100 µM (inactive). Besides, the GI50 in [7], in [9], in assay [11], in assay [12], in assay [13] and in assay [14] was > 100 µM (inactive) each time. Also, the GI50 is > 100 µM (inactive) in assay [20]; > 100 µM (inactive) in assay [15]; > 100 µM (inactive) in [16]; 71.6 µM (inactive) in assay [19]; > 100 µM (inactive) in [17].

With `C=CC(Br)(CBr)CCC(Cl)C(C)C` (centres undefined), the GI50 is 2.72 µM (inactive) in assay [1]; 9.66 µM (inactive) in [2]; < 0.01 µM (active) in assay [3]; 3.12 µM (inactive) in assay [18]; 2.5 µM (inactive) in [5]; 1.33 µM (inactive) in assay [6]. In addition, the GI50 was 1.06 µM (active) in [7]; 7.28 µM (inactive) in [8]; 1.88 µM (inactive) in assay [9]; 1.42 µM (inactive) in assay [10]; 1.49 µM (inactive) in assay [12]; 2.44 µM (inactive) in assay [13]. Moreover, the GI50 is 0.35 µM (active) in [20]; 1.56 µM (inactive) in [15]; 1.84 µM (inactive) in assay [16]; 2.31 µM (inactive) in [19]; 1.88 µM (inactive) in [17].

Regarding `COc1ccc(NC2=NCCO2)c2ccccc12`, the GI50 in assay [1] was > 10 µM (inactive); in assay [2], > 10 µM (inactive); in assay [3] it was > 10 µM (inactive); in assay [18], > 10 µM (inactive); in assay [4], > 10 µM; in [5] it was > 10 µM (inactive). In addition, the GI50 was > 10 µM (inactive) in assay [6]; > 10 µM (inactive) in [7]; 3.03 µM (inactive) in [8]; > 10 µM (inactive) in assay [9]; > 10 µM (inactive) in [10]; > 10 µM (inactive) in [11]. Besides, the GI50 in assay [12], in [13], in assay [14], in [20], in [15] and in assay [16] was > 10 µM (inactive) each time. In addition, the GI50 in [19] and in assay [17] was > 10 µM (inactive) each time.

Turning to `O=c1c2cc(I)ccc2nc(-c2cccs2)n1Nc1ccccc1`, the GI50 was 13.5 µM (inactive) in assay [2]; 16 µM (inactive) in [3]; 12.2 µM (inactive) in assay [18]; 5.78 µM in assay [4]; 1.39 µM (inactive) in assay [5]; 8.17 µM (inactive) in assay [7]. The GI50 is 14.1 µM (inactive) in assay [8]; 0.458 µM (active) in assay [9]; 0.849 µM (active) in assay [10]; 22.3 µM (inactive) in assay [11]; 3.06 µM (inactive) in assay [12]; 30.5 µM (inactive) in assay [13]. For the same compound, the GI50 in [14] was 2.08 µM (inactive); in [20] it was 4.61 µM (inactive); in [15] it was 14.1 µM (inactive); in [16], 0.383 µM (active); in assay [19] it was 33.5 µM (inactive).

With `COC(=O)C(C)(C)NC(=O)C(Cc1ccccc1)NC(=O)C(C)(C)NC(=O)OCc1ccccc1` (centres undefined) (Cbz-[Aib]-[ξF]-[Aib]-OMe), the GI50 in [1] was > 100 µM (inactive); in [2] it was > 100 µM (inactive); in assay [3], > 100 µM (inactive); in [18], > 100 µM (inactive); in assay [4] it was > 100 µM; in assay [5], > 100 µM (inactive). The GI50 in [6], in assay [7], in assay [9], in [10], in assay [11] and in [12] was > 100 µM (inactive) in each case. For the same compound, the GI50 in assay [13], in [14], in [20], in assay [15], in [16] and in [17] was > 100 µM (inactive) in each case.
